How the values were obtained:
[1] = test system: coronavirus USA_WA1/2020 SARS CoV-2; test: SARS CoV-2 CPE assay for antiviral activity (Vero E6 host cells, Cell Titer-Glo); format: cell-based; settings: Vero C1008, 10-point dose response, high concentration 15 μM, 72 hours, read-out: IC50 for inhibition of SARS CoV-2 mediated cell killing
[2] = test system: SARS-CoV-2; test: microbe, parasite or virus in culture; format: cell-based; settings: Severe acute respiratory syndrome coronavirus 2, A549, 48 h; read-out: IC50 for inhibition of SARS CoV-2 mediated cell killing
[3] = in vitro; settings: African green monkey
[4] = in vitro; settings: human

SMILES	IC50 [1] [µM]	IC50 [2] [µM]	CC50 [3] [µM]	CC50 [4] [µM]
C[C@@H]1COCCN1c1cc(N2CCN(S(=O)(=O)N3CCCC3)CC2C(F)(F)F)[nH]c(=O)c1 (stereo partly shown) [Compound 1]	0.9	0.16	29	24
C[C@@H]1COCCN1c1cc(N2CCN(S(=O)(=O)c3cncc(F)c3)CC2C(F)(F)F)[nH]c(=O)c1 (stereo partly shown) [Compound 2]	0.409	0.12	> 10	> 10
C[C@@H]1COCCN1c1cc(N2CCN(S(=O)(=O)Cc3ccc(F)cc3)CC2C(F)(F)F)[nH]c(=O)c1 (stereo partly shown) [Compound 3]	0.224	0.039	> 10	5160
C[C@@H]1COCCN1c1cc(N2CCN(S(=O)(=O)N(C)C)CC2C(F)(F)F)[nH]c(=O)c1 (stereo partly shown) [Compound 4]	1.12	0.369	> 10	> 10
